# Test results reported in patent publication US20140248361A1, “HERBAL EXTRACT COMPOSITION AND A PROCESS THEREOF” (PRASAN SOLUTIONS (INDIA) PVT LTD, priority 2012, published 2014).
# Legend:
# Shelf life of canola oil = details: 200 ppm
# [1] = Synergism of TBHQ and PRESOL combination (Rancimat) in palm oil
# Experimental: Synergism of TBHQ and PRESOL is analyzed in palm oil. If the frying industry is considered, synthetic antioxidant TBHQ is being added to the oils. […] In order to overcome this limitation, TBHQ is fortified with PRESOL and added to vegetable oils in order to increase the frying cycles which ultimately increases the shelf life of end products. […] The below table 25 illustrates all the combination of fortification of TBHQ and PRESOL used in palm oil to illustrate maximum activity of fortified combination. Synergism is calculated based on the below equation: [formula]
# [2] = Oil stability index (Rancimat) of sunflower oil; details: 200 ppm
# [3] = Totox value of palm oil on storage; details: ambient temperature
# [4] = Oil stability index (Rancimat) of palm oil; details: 200 ppm
# [5] = Estimation of shelf life of sunflower oil (Rancimat temperature extrapolation); details: 200 ppm
# [6] = Para-anisidine value of palm oil on storage
# [7] = Frying cycle analysis of sunflower oil (total polar compounds)
# Experimental: (§1) Palm oil and sunflower oil with antioxidants added to it are obtained from a local refinery. Frying studies are carried out with control oil and by adding TBHQ (Sample A), BHA (Sample B), GT Pulverized (Sample C), ROS (Sample D), GT Cryo grinded (Sample E), GT Crude Extract (Sample F) and PRESOL, respectively to the oils. Experiments are carried out a concentration of 200 ppm and 500 ppm. Fresh potatoes of less reduced sugar content variety are used throughout the experiment which is purchased form a local supermarket. Oil samples are withdrawn from the fryer at the end of every day and stored at −4° C. until it is tested for quality parameters viz, total polar compounds. Polar compounds present in oil and fats are measured by column chromatography using standard method, ES ISO 8420:2012.
# [8] = Effect of particle size on antioxidant activity (Rancimat induction time) in palm oil; details: 200 ppm in palm oil; Rancimat 120° C.
# [9] = Estimation of shelf life of palm oil (Rancimat temperature extrapolation); details: 200 ppm
# [10] = Effect of particle size on antioxidant activity (Rancimat induction time) in sunflower oil; details: 200 ppm in sunflower oil; Rancimat 100° C.
# [11] = Peroxide value of palm oil on storage
# [12] = Frying cycle analysis of palm oil (total polar compounds)
# Experimental: as §1
# [13] = ambient temperature, day 0, 200 ppm
# [14] = ambient temperature, day 15, 200 ppm
# [15] = ambient temperature, day 30, 200 ppm
# [16] = ambient temperature, day 45, 200 ppm
# [17] = ambient temperature, day 60, 200 ppm
# [18] = ambient temperature, day 75, 200 ppm
# [19] = ambient temperature, day 90, 200 ppm
# [20] = ambient temperature, day 105, 200 ppm
# [21] = ambient temperature, day 120, 200 ppm
# [22] = ambient temperature, day 135, 200 ppm
# [23] = ambient temperature, day 150, 200 ppm
# [24] = ambient temperature, day 165, 200 ppm
# [25] = ambient temperature, day 180, 200 ppm
smiles,measurement,setting,value
"CC(C)(C)c1cc(O)ccc1O [Sample A, tertiary butyl hydroquinone]",Shelf Life (No. Of Days),Shelf life of canola oil,181 days
same,Increase in OSI (%),[1]; 50 ppm alone,5.12%
same,Induction Time (H) at 120 C.,[1]; 50 ppm alone,9.57 H
same,OSI,[1]; 50 ppm alone,1.054
same,increase in induction time as compared to control (X-C),[1]; 50 ppm alone,0.49
same,Increase in OSI (%),[1]; 100 ppm alone,17.53%
same,Induction Time (H) at 120 C.,[1]; 100 ppm alone,11.01 H
same,OSI,[1]; 100 ppm alone,1.21
same,increase in induction time as compared to control (X-C),[1]; 100 ppm alone,1.93
same,Increase in OSI (%),[1]; 200 ppm alone,36.24%
same,Induction Time (H) at 120 C.,[1]; 200 ppm alone,14.24 H
same,OSI,[1]; 200 ppm alone,1.57
same,increase in induction time as compared to control (X-C),[1]; 200 ppm alone,5.16
same,Induction Time,[2]; 80° C.,109.76 h
same,Oxidative Stability Index (OSI),[2]; 80° C.,3.01
same,Induction Time,[2]; 100° C.,26.82 h
same,Oxidative Stability Index (OSI),[2]; 100° C.,2.88
same,Induction Time,[2]; 120° C.,6.13 h
same,Oxidative Stability Index (OSI),[2]; 120° C.,2.61
same,Totox value,"[3]; day 0, 200 ppm",3.497
same,Totox value,"[3]; day 15, 200 ppm",4.585
same,Totox value,"[3]; day 30, 200 ppm",5.879
same,Totox value,"[3]; day 45, 200 ppm",6.228
same,Totox value,"[3]; day 60, 200 ppm",6.157
same,Totox value,"[3]; day 75, 200 ppm",6.441
same,Totox value,"[3]; day 90, 200 ppm",6.400
same,Totox value,"[3]; day 105, 200 ppm",6.976
same,Totox value,"[3]; day 120, 200 ppm",7.122
same,Totox value,"[3]; day 135, 200 ppm",7.339
same,Totox value,"[3]; day 150, 200 ppm",7.916
same,Totox value,"[3]; day 165, 200 ppm",8.258
same,Totox value,"[3]; day 180, 200 ppm",8.614
same,Induction Time,[4]; 100° C.,95.76 h
same,Oxidative Stability Index (OSI),[4]; 100° C.,2.30
same,Induction Time,[4]; 120° C.,20.93 h
same,Oxidative Stability Index (OSI),[4]; 120° C.,2.17
same,Induction Time,[4]; 140° C.,5.26 h
same,Oxidative Stability Index (OSI),[4]; 140° C.,2.15
same,Shelf Life (days) at 30° C.,[5],171.0 days
same,Para-anisidine value,"[6]; 50° C., day 0, 200 ppm",2.69
same,Para-anisidine value,"[6]; 50° C., day 7, 200 ppm",3.062
same,Para-anisidine value,"[6]; 50° C., day 15, 200 ppm",3.296
same,Para-anisidine value,"[6]; 50° C., day 22, 200 ppm",3.395
same,Para-anisidine value,"[6]; 50° C., day 30, 200 ppm",3.74
same,Para-anisidine value,"[6]; 50° C., day 37, 200 ppm",4.052
same,Para-anisidine value,"[6]; 50° C., day 45, 200 ppm",4.209
same,Para-anisidine value,"[6]; 50° C., day 52, 200 ppm",4.685
same,Para-anisidine value,"[6]; 50° C., day 60, 200 ppm",5.091
same,Para-anisidine value,"[6]; 50° C., day 67, 200 ppm",5.208
same,Para-anisidine value,"[6]; 50° C., day 75, 200 ppm",5.514
same,Para-anisidine value,"[6]; 50° C., day 82, 200 ppm",5.601
same,Para-anisidine value,"[6]; 50° C., day 90, 200 ppm",5.827
same,Para-anisidine value,[6]; [13],2.566
same,Para-anisidine value,[6]; [14],3.062
same,Para-anisidine value,[6]; [15],3.045
same,Para-anisidine value,[6]; [16],3.113
same,Para-anisidine value,[6]; [17],2.615
same,Para-anisidine value,[6]; [18],2.731
same,Para-anisidine value,[6]; [19],2.772
same,Para-anisidine value,[6]; [20],3.217
same,Para-anisidine value,[6]; [21],3.303
same,Para-anisidine value,[6]; [22],3.438
same,Para-anisidine value,[6]; [23],3.473
same,Para-anisidine value,[6]; [24],3.639
same,Para-anisidine value,[6]; [25],3.808
same,Total Polar compounds of sunflower oil,"[7]; 200 ppm, frying cycle 0",3.746
same,Total Polar compounds of sunflower oil,"[7]; 200 ppm, frying cycle 8",6.375
same,Total Polar compounds of sunflower oil,"[7]; 200 ppm, frying cycle 16",13.632
same,Total Polar compounds of sunflower oil,"[7]; 200 ppm, frying cycle 24",18.505
same,Total Polar compounds of sunflower oil,"[7]; 200 ppm, frying cycle 32",23.123
same,Total Polar compounds of sunflower oil,"[7]; 200 ppm, frying cycle 40",28.648
same,frying cycle after which threshold limit for total polar compounds is crossed,[7]; sunflower oil,40 cycle
same,Number of batches fried,"[7]; sunflower oil (SFO), potato chips, 200 ppm",40 batches
same,Induction Period (h) of PO at 120° C.,[8],20.93 h
same,Shelf Life (days) at 30° C.,[9],617.0 days
same,Induction Period (h) of SFO 100° C.,[10],26.82 h
same,Peroxide value,"[11]; 50° C., day 0, 200 ppm",0.482
same,Peroxide value,"[11]; 50° C., day 7, 200 ppm",1.309
same,Peroxide value,"[11]; 50° C., day 15, 200 ppm",1.836
same,Peroxide value,"[11]; 50° C., day 22, 200 ppm",1.887
same,Peroxide value,"[11]; 50° C., day 30, 200 ppm",2.005
same,Peroxide value,"[11]; 50° C., day 37, 200 ppm",3.074
same,Peroxide value,"[11]; 50° C., day 45, 200 ppm",3.686
same,Peroxide value,"[11]; 50° C., day 52, 200 ppm",4.102
same,Peroxide value,"[11]; 50° C., day 60, 200 ppm",4.491
same,Peroxide value,"[11]; 50° C., day 67, 200 ppm",4.75
same,Peroxide value,"[11]; 50° C., day 75, 200 ppm",4.893
same,Peroxide value,"[11]; 50° C., day 82, 200 ppm",5.209
same,Peroxide value,"[11]; 50° C., day 90, 200 ppm",5.395
same,Peroxide value,[11]; [13],0.465
same,Peroxide value,[11]; [14],0.762
same,Peroxide value,[11]; [15],1.417
same,Peroxide value,[11]; [16],1.558
same,Peroxide value,[11]; [17],1.771
same,Peroxide value,[11]; [18],1.855
same,Peroxide value,[11]; [19],1.814
same,Peroxide value,[11]; [20],1.88
same,Peroxide value,[11]; [21],1.91
same,Peroxide value,[11]; [22],1.951
same,Peroxide value,[11]; [23],2.222
same,Peroxide value,[11]; [24],2.31
same,Peroxide value,[11]; [25],2.403
same,frying cycle after which threshold limit for total polar compounds is crossed,[12]; palm oil,40 cycle
same,Number of batches fried,"[12]; palm oil (PO), potato chips, 200 ppm",40 batches
